In one assay the target is Actin-related protein 2 (Homo sapiens, UniProt P61160).
For assay [1], the target named is RAC-alpha serine/threonine-protein kinase (Homo sapiens, UniProt P31749).
For assay [2], the target named is T1, Cysteine--tRNA ligase, cytoplasmic (Homo sapiens, UniProt P49589).
T1 sequence (P49589 whole entry): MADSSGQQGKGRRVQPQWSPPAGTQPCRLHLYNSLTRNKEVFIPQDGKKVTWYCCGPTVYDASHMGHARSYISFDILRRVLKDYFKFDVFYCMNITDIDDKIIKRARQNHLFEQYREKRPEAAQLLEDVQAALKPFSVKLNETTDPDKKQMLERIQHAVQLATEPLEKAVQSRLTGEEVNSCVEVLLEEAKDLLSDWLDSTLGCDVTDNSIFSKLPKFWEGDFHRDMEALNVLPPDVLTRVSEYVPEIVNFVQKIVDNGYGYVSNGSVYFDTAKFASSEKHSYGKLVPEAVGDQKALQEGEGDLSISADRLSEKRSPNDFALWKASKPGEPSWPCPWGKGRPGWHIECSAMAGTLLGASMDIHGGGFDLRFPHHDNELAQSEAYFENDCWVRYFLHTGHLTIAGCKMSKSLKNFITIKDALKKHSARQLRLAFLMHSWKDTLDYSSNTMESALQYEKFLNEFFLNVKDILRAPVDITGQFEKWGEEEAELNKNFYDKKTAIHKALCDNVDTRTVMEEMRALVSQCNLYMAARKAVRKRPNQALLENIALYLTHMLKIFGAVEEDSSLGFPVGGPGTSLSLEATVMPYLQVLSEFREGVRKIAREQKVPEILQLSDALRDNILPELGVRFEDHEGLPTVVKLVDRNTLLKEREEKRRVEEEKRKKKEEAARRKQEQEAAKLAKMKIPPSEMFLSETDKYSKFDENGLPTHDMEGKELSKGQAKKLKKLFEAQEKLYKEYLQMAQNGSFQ

Assay [3] deals with Glycogen synthase kinase-3 beta (Homo sapiens, UniProt P49841).
Assay [4] deals with Dual specificity mitogen-activated protein kinase kinase 2 (Homo sapiens, UniProt P36507).
The target in assay [5] is T2, Serine/threonine-protein kinase Nek3 (Homo sapiens, UniProt P51956).
T2 sequence (P51956 whole entry): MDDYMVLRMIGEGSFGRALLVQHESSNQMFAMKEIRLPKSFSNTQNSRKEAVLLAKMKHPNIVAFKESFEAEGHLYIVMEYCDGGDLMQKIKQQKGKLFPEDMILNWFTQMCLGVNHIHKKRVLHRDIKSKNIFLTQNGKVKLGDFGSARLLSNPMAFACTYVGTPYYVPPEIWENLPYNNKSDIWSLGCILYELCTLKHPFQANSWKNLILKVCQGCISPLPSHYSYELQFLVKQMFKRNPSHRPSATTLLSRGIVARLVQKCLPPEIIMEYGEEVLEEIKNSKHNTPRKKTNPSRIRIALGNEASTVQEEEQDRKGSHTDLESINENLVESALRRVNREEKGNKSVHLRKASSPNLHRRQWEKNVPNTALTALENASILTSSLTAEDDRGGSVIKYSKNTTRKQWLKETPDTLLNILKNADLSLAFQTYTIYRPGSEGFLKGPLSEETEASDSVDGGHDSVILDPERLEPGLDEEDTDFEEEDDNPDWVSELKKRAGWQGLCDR

The target in assay [6] is cAMP-dependent protein kinase type II-alpha regulatory subunit (Homo sapiens, UniProt P13861).
The target of assay [7] is Receptor-interacting serine/threonine-protein kinase 2 (Homo sapiens, UniProt O43353).
Assay [8] deals with T3, Serine/threonine-protein kinase TAO2 (Homo sapiens, UniProt Q9UL54).
T3 sequence (Q9UL54 whole entry): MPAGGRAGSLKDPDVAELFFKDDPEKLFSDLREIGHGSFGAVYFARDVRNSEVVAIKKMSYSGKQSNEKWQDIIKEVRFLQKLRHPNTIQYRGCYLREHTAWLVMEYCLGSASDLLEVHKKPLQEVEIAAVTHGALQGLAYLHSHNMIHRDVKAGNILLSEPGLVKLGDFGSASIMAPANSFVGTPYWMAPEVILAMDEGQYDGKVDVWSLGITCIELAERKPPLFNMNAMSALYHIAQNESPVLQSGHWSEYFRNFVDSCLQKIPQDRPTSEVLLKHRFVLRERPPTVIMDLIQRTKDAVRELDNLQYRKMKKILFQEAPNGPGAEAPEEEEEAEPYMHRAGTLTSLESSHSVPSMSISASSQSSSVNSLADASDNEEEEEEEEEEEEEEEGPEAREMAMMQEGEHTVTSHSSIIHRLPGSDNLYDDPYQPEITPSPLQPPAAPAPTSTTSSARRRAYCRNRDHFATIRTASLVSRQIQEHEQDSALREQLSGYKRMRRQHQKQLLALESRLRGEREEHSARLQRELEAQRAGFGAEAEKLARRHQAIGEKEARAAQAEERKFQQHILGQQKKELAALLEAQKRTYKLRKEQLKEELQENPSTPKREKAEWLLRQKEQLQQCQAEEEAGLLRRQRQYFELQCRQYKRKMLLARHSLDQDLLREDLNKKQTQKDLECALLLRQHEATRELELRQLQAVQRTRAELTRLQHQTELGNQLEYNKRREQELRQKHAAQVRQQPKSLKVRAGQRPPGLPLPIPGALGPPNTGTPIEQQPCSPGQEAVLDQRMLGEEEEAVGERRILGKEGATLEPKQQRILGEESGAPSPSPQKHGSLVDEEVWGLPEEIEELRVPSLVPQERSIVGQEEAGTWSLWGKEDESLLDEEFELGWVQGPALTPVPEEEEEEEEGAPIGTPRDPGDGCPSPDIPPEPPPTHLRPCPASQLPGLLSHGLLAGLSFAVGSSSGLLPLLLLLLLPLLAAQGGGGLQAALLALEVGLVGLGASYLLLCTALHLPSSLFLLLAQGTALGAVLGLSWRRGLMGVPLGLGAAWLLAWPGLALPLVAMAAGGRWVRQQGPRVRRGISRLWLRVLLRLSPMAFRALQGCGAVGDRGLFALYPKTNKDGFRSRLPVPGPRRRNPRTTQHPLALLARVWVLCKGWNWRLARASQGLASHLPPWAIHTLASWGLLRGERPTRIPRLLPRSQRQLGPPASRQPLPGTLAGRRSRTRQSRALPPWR

For the next assay, the target named is DNA topoisomerase 2-beta (Homo sapiens, UniProt Q02880).

The source made the active and inactive calls.
Also: in the data inactive means no Kd found up to 30 µM.

DNA topoisomerase 2-beta, sequence (Q02880 whole entry): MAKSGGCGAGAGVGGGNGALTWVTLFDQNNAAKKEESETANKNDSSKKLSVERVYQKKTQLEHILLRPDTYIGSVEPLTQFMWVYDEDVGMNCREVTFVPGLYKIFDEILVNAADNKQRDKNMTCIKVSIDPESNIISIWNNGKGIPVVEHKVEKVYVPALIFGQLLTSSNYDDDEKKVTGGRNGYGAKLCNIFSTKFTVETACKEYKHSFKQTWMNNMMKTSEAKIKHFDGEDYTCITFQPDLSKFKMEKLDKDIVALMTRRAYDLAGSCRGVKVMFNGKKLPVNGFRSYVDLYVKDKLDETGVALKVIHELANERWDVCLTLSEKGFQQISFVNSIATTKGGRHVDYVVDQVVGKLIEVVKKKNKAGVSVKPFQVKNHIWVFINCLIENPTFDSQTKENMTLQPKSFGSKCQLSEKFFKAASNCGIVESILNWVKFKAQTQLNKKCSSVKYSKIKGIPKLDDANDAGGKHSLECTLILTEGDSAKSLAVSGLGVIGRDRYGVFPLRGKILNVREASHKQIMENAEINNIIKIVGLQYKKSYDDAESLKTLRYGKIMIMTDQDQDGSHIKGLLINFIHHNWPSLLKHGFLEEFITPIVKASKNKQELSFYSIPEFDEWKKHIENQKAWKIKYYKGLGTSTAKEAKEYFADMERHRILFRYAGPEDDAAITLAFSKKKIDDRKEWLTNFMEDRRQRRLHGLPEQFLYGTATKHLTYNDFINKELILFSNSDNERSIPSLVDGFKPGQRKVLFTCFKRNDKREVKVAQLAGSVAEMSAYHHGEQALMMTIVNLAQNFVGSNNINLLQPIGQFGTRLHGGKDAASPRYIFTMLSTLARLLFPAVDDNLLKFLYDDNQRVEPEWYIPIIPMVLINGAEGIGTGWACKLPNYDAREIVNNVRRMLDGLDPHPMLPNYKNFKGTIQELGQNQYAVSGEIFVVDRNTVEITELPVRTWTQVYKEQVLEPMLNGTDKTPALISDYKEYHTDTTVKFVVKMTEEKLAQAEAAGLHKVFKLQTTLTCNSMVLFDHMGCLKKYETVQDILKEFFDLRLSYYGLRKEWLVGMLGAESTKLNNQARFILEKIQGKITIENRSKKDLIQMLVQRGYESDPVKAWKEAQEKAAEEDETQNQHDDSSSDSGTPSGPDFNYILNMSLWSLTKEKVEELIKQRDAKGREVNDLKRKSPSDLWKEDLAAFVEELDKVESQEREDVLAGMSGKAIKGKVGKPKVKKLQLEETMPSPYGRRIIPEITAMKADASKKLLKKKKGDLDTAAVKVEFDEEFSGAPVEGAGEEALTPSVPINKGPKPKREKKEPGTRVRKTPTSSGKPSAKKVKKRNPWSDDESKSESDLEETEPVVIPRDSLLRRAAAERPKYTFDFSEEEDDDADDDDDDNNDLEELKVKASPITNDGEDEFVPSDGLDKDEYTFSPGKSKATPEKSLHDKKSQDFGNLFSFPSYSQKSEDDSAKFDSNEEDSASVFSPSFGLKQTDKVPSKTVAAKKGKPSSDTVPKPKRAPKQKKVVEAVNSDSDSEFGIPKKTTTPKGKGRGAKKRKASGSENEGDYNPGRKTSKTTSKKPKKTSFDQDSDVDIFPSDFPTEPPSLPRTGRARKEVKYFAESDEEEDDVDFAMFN
RAC-alpha serine/threonine-protein kinase, sequence (P31749 whole entry): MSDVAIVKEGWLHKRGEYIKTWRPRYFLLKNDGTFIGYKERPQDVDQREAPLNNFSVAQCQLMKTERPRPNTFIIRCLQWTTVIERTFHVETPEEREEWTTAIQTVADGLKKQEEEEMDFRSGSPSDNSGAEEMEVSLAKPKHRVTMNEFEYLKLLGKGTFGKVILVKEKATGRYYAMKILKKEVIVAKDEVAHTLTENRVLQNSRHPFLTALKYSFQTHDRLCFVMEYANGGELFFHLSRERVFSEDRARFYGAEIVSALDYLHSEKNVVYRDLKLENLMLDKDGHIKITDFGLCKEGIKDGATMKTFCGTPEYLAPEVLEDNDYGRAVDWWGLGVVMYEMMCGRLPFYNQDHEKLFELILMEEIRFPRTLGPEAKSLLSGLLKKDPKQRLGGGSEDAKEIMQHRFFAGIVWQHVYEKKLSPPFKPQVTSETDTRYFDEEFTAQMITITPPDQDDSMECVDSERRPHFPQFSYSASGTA
cAMP-dependent protein kinase type II-alpha regulatory subunit, sequence (P13861 whole entry): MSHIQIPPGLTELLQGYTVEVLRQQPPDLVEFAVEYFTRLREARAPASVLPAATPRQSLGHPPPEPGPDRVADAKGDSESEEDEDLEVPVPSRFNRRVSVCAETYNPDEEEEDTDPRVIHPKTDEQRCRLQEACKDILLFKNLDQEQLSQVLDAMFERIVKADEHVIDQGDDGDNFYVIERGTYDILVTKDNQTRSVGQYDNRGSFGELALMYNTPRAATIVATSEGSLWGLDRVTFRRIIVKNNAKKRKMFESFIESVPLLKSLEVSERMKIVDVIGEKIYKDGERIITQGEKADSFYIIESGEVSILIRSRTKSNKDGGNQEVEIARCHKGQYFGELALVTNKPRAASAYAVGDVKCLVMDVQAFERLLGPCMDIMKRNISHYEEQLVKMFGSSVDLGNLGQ
Glycogen synthase kinase-3 beta, sequence (P49841 whole entry): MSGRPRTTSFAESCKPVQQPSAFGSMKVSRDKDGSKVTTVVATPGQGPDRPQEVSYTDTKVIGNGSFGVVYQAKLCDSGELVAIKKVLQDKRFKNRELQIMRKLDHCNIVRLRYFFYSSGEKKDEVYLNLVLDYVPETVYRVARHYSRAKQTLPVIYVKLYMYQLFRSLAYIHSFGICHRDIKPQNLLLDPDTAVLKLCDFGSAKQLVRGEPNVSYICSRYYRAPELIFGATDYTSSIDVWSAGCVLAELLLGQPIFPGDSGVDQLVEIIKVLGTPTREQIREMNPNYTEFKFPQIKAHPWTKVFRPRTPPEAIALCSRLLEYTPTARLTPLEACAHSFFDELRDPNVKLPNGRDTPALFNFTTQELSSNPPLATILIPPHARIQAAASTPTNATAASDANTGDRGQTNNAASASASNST
Dual specificity mitogen-activated protein kinase kinase 2, sequence (P36507 whole entry): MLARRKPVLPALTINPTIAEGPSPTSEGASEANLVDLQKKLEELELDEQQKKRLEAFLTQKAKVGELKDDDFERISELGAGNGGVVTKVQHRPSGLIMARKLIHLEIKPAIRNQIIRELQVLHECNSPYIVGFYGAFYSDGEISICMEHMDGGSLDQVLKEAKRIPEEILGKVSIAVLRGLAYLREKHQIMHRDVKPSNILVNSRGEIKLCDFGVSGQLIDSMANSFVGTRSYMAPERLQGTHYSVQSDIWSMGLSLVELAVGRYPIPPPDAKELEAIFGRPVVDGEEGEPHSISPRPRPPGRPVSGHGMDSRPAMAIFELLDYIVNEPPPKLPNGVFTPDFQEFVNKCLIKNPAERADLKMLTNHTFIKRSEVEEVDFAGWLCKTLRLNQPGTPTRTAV
Receptor-interacting serine/threonine-protein kinase 2, sequence (O43353 whole entry): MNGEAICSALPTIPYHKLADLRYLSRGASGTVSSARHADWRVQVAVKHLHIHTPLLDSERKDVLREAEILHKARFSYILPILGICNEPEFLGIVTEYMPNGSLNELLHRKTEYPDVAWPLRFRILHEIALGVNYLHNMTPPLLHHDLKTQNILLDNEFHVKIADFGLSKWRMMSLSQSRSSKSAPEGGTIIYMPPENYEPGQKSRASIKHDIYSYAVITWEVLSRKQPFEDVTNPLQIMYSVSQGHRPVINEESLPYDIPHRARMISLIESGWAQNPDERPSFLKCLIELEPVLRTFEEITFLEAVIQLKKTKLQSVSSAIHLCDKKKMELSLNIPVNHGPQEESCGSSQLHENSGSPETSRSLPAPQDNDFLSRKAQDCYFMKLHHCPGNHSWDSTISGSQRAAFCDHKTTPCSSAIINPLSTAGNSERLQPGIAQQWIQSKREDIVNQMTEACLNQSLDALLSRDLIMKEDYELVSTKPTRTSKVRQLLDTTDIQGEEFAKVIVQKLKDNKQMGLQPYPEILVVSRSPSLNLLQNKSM

For the compound `Nc1ncnc2c1c(-c1cccc(OCc3ccccc3)c1)cn2[C@H]1C[C@@H](CN2CCC2)C1` [AEW-541], the Kd on Actin-related protein 2 is > 30 µM (inactive); in assay [1], > 30 µM (inactive); in [2], > 30 µM (inactive); in assay [3], > 30 µM (inactive); in assay [4], 5.76 µM (active); in assay [5] it was > 30 µM (inactive). Moreover, the Kd in [6] was > 30 µM (inactive); in [7] it was 0.355 µM (active); in assay [8] it was > 30 µM (inactive); on DNA topoisomerase 2-beta, > 30 µM (inactive).
For the compound `Cc1nc(NC(=O)N2CCC[C@H]2C(N)=O)sc1-c1ccnc(C(C)(C)C(F)(F)F)c1` [ALPELISIB], the Kd (at Actin-related protein 2; in assay [1]; in assay [2]; in assay [3]; in assay [4]; in [5]) was > 30 µM (inactive) in each case. Besides, the Kd (in assay [6]; in assay [7]; in [8]; on DNA topoisomerase 2-beta) was > 30 µM (inactive) each time.
In the case of `COc1cc([C@@H]2c3cc4c(cc3[C@H](O)[C@H]3COC(=O)[C@@H]23)OCO4)cc(OC)c1OC` [AXL-1717], the Kd (on Actin-related protein 2; in assay [1]; in assay [2]; in [3]; in assay [4]; in [5]) was > 30 µM (inactive) in each case. The Kd (in assay [6]; in [7]; in assay [8]; at DNA topoisomerase 2-beta) was > 30 µM (inactive) each time.
For the compound `Cn1cnc2c(F)c(Nc3ccc(Br)cc3F)c(C(=O)NOCCO)cc21` [BINIMETINIB], the Kd on Actin-related protein 2 was > 30 µM (inactive); in [1] it was > 30 µM (inactive); in [2], > 30 µM (inactive); in assay [3], > 30 µM (inactive); in [4] it was 0.036 µM (active); in assay [5] it was > 30 µM (inactive). The Kd (in assay [6]; in [7]; in [8]; at DNA topoisomerase 2-beta) was > 30 µM (inactive) each time.
As to `CCn1c(C(=O)N(C2CC2)C2CC2)cc2c3c(ncn3C)c(Nc3cc(C)n(C)n3)nc21` [BMS-911543], the Kd (on Actin-related protein 2; in assay [1]; in assay [2]; in [3]; in [4]; in assay [5]) was > 30 µM (inactive) in each case. The Kd (in [6]; in assay [7]; in [8]; at DNA topoisomerase 2-beta) was > 30 µM (inactive) each time.
Take `COc1cc2ncnc(Oc3cccc(NC(=O)Nc4cc(C(C)(C)C(F)(F)F)on4)c3)c2cc1OC` [CEP-32496]: the Kd (at Actin-related protein 2; in [1]; in assay [2]; in [3]; in assay [4]; in [5]) was > 30 µM (inactive) each time. Further, the Kd in [6] was > 30 µM (inactive); in assay [7], 0.442 µM (active); in assay [8] it was > 30 µM (inactive); at DNA topoisomerase 2-beta, > 30 µM (inactive).
Turning to `Cc1cc(Nc2ncc(Cl)c(Nc3ccccc3S(=O)(=O)C(C)C)n2)c(OC(C)C)cc1C1CCNCC1` [CERITINIB], the Kd (at Actin-related protein 2; in assay [1]; in assay [2]; in assay [3]; in [4]; in assay [5]) was > 30 µM (inactive) throughout. The Kd (in assay [6]; in assay [7]; in assay [8]; on DNA topoisomerase 2-beta) was > 30 µM (inactive) throughout.
Take `COc1c(OCCCN2CCOCC2)ccc2c1N=C(NC(=O)c1cnc(N)nc1)N1CCN=C21` [COPANLISIB]: the Kd (on Actin-related protein 2; in assay [1]; in assay [2]; in assay [3]; in [4]; in assay [5]) was > 30 µM (inactive) throughout. Besides, the Kd (in [6]; in assay [7]; in [8]; at DNA topoisomerase 2-beta) was > 30 µM (inactive) throughout.
Regarding `COCC(=O)NC/C=C/c1ccc2ncnc(Nc3ccc(Oc4ccc(C)nc4)c(C)c3)c2c1` [CP-724714], the Kd (at Actin-related protein 2; in [1]; in assay [2]; in assay [3]; in [4]; in assay [5]) was > 30 µM (inactive) in each case. Further, the Kd (in assay [6]; in [7]; in assay [8]; at DNA topoisomerase 2-beta) was > 30 µM (inactive) each time.
On to `C#Cc1cccc(Nc2ncnc3cc(OC)c(OCCCCCCC(=O)NO)cc23)c1` [CUDC-101], for which the Kd (at Actin-related protein 2; in assay [1]; in assay [2]; in assay [3]; in assay [4]; in assay [5]) was > 30 µM (inactive) each time. For the same compound, the Kd in assay [6] is > 30 µM (inactive); in [7], 1.09 µM (active); in assay [8], > 30 µM (inactive); at DNA topoisomerase 2-beta, > 30 µM (inactive).

Source of the values: ChEMBL document CHEMBL3991601, “The target landscape of clinical kinase drugs” (Science, 2017).
